As a reminder, the inhibition in vivo is the drop in the measured response relative to a control, in per cent.

SMILES strings stand for the structures.

Series [1] relates to Rattus norvegicus. Kind of series: Antidiabetic activity in fasted glucose fed hyperglycemic normal Rattus norvegicus Wistar albino (rat) assessed as blood glucose level at 0.05 mmol/kg administered 30 min prior to glucose-challenge measured after 60 min (reference value: 126.5 +/- 3.8 mg/dl). Format: functional.
Series [2] relates to Rattus norvegicus. Briefly: Ulcerogenic activity in fasted Rattus norvegicus Wistar albino (rat) at 0.15 mmol/kg , po measured after 6 hr. It is filed as toxicity, organism-based. Particulars: in vivo.
Series [3] relates to Rattus norvegicus. Kind of series: Anti-inflammatory activity in Rattus norvegicus Wistar albino (rat) assessed as inhibition of carrageenan-induced paw edema at 0.05 mmol/kg administered 30 min prior to carrageenan-challenge measured after 5 hr relative to control. It is filed as functional. On the technique in general: In the carrageenan paw model, swelling and tenderness develop within hours.

The test system of series [4] is Rattus norvegicus. Kind of series: Anti-inflammatory activity in Rattus norvegicus Wistar albino (rat) assessed as inhibition of carrageenan-induced paw edema at 0.05 mmol/kg administered 30 min prior to carrageenan-challenge measured after 3 hr relative to control. It is filed as functional.

For the molecule `NS(=O)(=O)c1ccc(N2N=C(c3cccc(O)c3)C[C@H]2c2ccccc2)cc1`, the results for the Activity in the series on Rattus norvegicus [1] and in the series with Rattus norvegicus [2] were 126.3 mg/dL and “Non-toxic”, respectively. Further, the inhibition in vivo at 50 µmol/kg with Rattus norvegicus [3] stood at 77.7%; in the series on Rattus norvegicus [4], 35.8%.

Turning to `Cc1ccc(-c2cc(C(F)(F)F)nn2-c2ccc(S(N)(=O)=O)cc2)cc1` [CELECOXIB], the inhibition in vivo at 50 µmol/kg in the series with Rattus norvegicus [3] was determined as 82.2%; with Rattus norvegicus [4], 75.9%.

`NS(=O)(=O)c1ccc(N2N=C(c3cccc(O)c3)C[C@H]2/C=C/c2ccccc2)cc1`: in the series on Rattus norvegicus [1], the Activity is 131 mg/dL. Moreover, the inhibition in vivo at 50 µmol/kg with Rattus norvegicus [3] is 59.2%; in the series with Rattus norvegicus [4], 39.9%.

In the case of `NS(=O)(=O)c1ccc(N2N=C(c3cccc(O)c3)C[C@H]2c2ccc(O)cc2)cc1`, the values for the Activity in the series on Rattus norvegicus [1] and with Rattus norvegicus [2] were 121 mg/dL and “Non-toxic”, respectively. Besides, the inhibition in vivo at 50 µmol/kg in the series with Rattus norvegicus [3] worked out at 77.7%; in the series on Rattus norvegicus [4], 64.7%.

On to `COc1ccc([C@@H]2CC(c3cccc(O)c3)=NN2c2ccc(S(N)(=O)=O)cc2)cc1OC`, for which the Activity in the series on Rattus norvegicus [1] was determined as 111 mg/dL. Also, the inhibition in vivo at 50 µmol/kg came to 66.7% with Rattus norvegicus [3] and 55.9% in the series with Rattus norvegicus [4].

As to `NS(=O)(=O)c1ccc(N2N=C(c3cccc(O)c3)C[C@H]2c2c3ccccc3cc3ccccc23)cc1`, the Activity in the series with Rattus norvegicus [1] was 136.6 mg/dL; with Rattus norvegicus [2], “Non-toxic”. The results for the inhibition in vivo at 50 µmol/kg in the series on Rattus norvegicus [3] and in the series with Rattus norvegicus [4] were 77.7% and 59.8%, respectively.

In the case of `COc1ccc([C@@H]2CC(c3cccc(O)c3)=NN2c2ccc(S(N)(=O)=O)cc2)cc1`, in the series on Rattus norvegicus [1], the Activity came out at 116.5 mg/dL. Further, the inhibition in vivo at 50 µmol/kg came out at 62.9% in the series with Rattus norvegicus [3] and 64.7% in the series with Rattus norvegicus [4].

In the case of `COc1cc([C@@H]2CC(c3cccc(O)c3)=NN2c2ccc(S(N)(=O)=O)cc2)cc(OC)c1OC`, the Activity with Rattus norvegicus [1] was 94.6 mg/dL. The inhibition in vivo at 50 µmol/kg with Rattus norvegicus [3] worked out at 74.4%; in the series with Rattus norvegicus [4], 51.9%.

`NS(=O)(=O)c1ccc(N2N=C(c3cccc(O)c3)C[C@H]2c2ccccc2O)cc1`: in the series with Rattus norvegicus [1], the Activity was 133 mg/dL. Also, the inhibition in vivo at 50 µmol/kg in the series with Rattus norvegicus [3] stood at 55.5%; in the series on Rattus norvegicus [4] it was 35.4%.

With `Cc1ccc([C@@H]2CC(c3cccc(O)c3)=NN2c2ccc(S(N)(=O)=O)cc2)cc1`, in the series with Rattus norvegicus [1], the Activity amounted to 138.6 mg/dL. For the same molecule, the inhibition in vivo at 50 µmol/kg was 66% in the series on Rattus norvegicus [3] and 64.7% with Rattus norvegicus [4].

`Cc1ccc(S(=O)(=O)NC(=O)NN2CC3CCCC3C2)cc1` (configuration not stated) [GLICLAZIDE]: the Activity in the series with Rattus norvegicus [1] was determined as 85.83 mg/dL.

In the case of `NS(=O)(=O)c1ccc(N2N=C(c3cccc(O)c3)C[C@H]2c2ccc(Cl)cc2)cc1`, the Activity in the series on Rattus norvegicus [1] worked out at 134 mg/dL. For the same molecule, the inhibition in vivo at 50 µmol/kg in the series on Rattus norvegicus [3] is 51.8%; in the series on Rattus norvegicus [4], 19.2%.

For the molecule `NS(=O)(=O)c1ccc(N2N=C(c3cccc(O)c3)C[C@H]2c2ccccc2Cl)cc1`, the Activity in the series on Rattus norvegicus [1] came out at 121 mg/dL. In addition, the inhibition in vivo at 50 µmol/kg in the series on Rattus norvegicus [3] came out at 70.3%; in the series with Rattus norvegicus [4], 32.6%.

On to `NS(=O)(=O)c1ccc(N2N=C(c3cccc(O)c3)C[C@H]2c2ccco2)cc1`, for which the Activity with Rattus norvegicus [1] is 133 mg/dL. The inhibition in vivo at 50 µmol/kg was 29.6% in the series with Rattus norvegicus [3] and 35.8% in the series with Rattus norvegicus [4].
